# From paper PMC4805082, “Seizure control by decanoic acid through direct AMPA receptor inhibition” (Brain, 2015)
# Key:
# [1] = humans; ref Rogawski and Hanada, 2013; cited from earlier work
# field EPSP = test system: field EPSP; set-up: method as in Ceolin et al., 2012; details: at 30–50 nM; ref Ceolin et al., 2012; cited from earlier work
# [2] = test system: epileptiform activity (burst discharges) in hippocampal slices induced by pentylenetetrazol; set-up: method as in Chang et al., 2012, 2013; details: 1 mM; ref Chang et al., 2012, 2013; cited from earlier work
# [3] = test system: epileptiform activity (burst discharges) in hippocampal slices induced by low-Mg2+; set-up: method as in Chang et al., 2012, 2013; details: 1 mM; ref Chang et al., 2012, 2013; cited from earlier work
# AMPA receptor GluA2/3 = biological target: T1, AMPA receptor GluA2/3 (Homo sapiens, UniProt P42262+P42263); test: Two-electrode voltage clamp, AMPA receptor GluA2/3 expressed in Xenopus oocytes; assay type: cell-based; details: for AMPA receptor currents: compound 1 mM, currents elicited by 100 µM L-glutamate, −50 mV
# T1 construct: expressed in transfected cells; host or cells: Xenopus laevis oocytes injected with cRNA (1:1 mix)
# Procedure: The AMPA receptor (flip isoform) cDNAs inserted in a SP6 polymerase expression vector (pSP6T) were a generous gift from Prof. Ralf Schoepfer (NPP, UCL). […] AMPA receptor cRNAs were mixed in a nominal 1:1 ratio and ∼5 ng was injected per oocyte.
# (§1) Xenopus laevis oocytes were purchased from the European Xenopus Resource Centre, University of Portsmouth. Stage V to VI oocytes were mechanically dissected and then subjected to gentle shaking for ∼30–50 min at room temperature with modified Barth’s solution (in mM): 88 NaCl, 1 KCl, 2.4 NaHCO3, 0.82 MgCl2, 0.77 CaCl2, 15 Tris-Cl, adjusted to pH 7.4 with NaOH (Sigma-Aldrich), supplemented with 50 IU/ml penicillin and 50 µg/ml streptomycin (Invitrogen) and 50 µg/ml tetracycline (Sigma-Aldrich) and 1% collagenase (type 1A). Healthy oocytes were manually defolliculated and the injections of cRNA for homomeric subunits alone (GluA1), or heteromeric mixtures of two subunits together (GluA1/GluA2 or GluA2/GluA3) were made using an automated Drummond Nanoinject II injector. The oocytes were then incubated at 17°C in modified Barth’s solution for at least 48 h before use in electrophysiological recordings.
# Experiments were performed at room temperature (∼21–23°C). […] Current and voltage electrodes were filled with 300 mM KCl and made from thin-walled borosilicate glass (GC150TF-7.5, Harvard Apparatus) using a PC-10 electrode puller (Narashige Instruments) and had resistances of 0.5–2 MΩ. […] Compounds were dissolved in distilled water or DMSO and dissolved in bathing solution to achieve their final concentrations during experiments, and were applied under gravity flow during the experiment by using a multi-valve perfusion system (VC3-8C, ALA Scientific Instruments). The bath solutions were perfused at a rate of 10 ml/min. […] Data acquisition was performed using the Windows PC-based program, WinEDR v3.0.6 (John Dempster, University of Strathclyde, UK).
# Statistical analysis was performed using ANOVA with Tukey post hoc test, paired t-test or unpaired t-test.
# AMPA receptor GluA1 = biological target: T2, AMPA receptor GluA1 (Homo sapiens, UniProt P42261); test: Two-electrode voltage clamp, homomeric GluA1 AMPA receptor expressed in Xenopus oocytes; assay type: cell-based; details: glutamate 100 µM
# T2 construct: expressed in transfected cells; host or cells: Xenopus laevis oocytes injected with cRNA
# Procedure: The AMPA receptor (flip isoform) cDNAs inserted in a SP6 polymerase expression vector (pSP6T) were a generous gift from Prof. Ralf Schoepfer (NPP, UCL). RNA was transcribed in vitro from MluI linearized transcripts using the SP6 Promega RiboMAX® RNA synthesis kit according to manufacturer’s protocols except for the addition of 0.75 mM capping nucleotide m^7G(5’)ppp(5’)G (Promega) and 1.6 mM GTP. cRNA concentrations and integrity were estimated by the intensity of fluorescence bands in RNA denaturating gels. AMPA receptor cRNAs were mixed in a nominal 1:1 ratio and ∼5 ng was injected per oocyte.
# as §1
# Experiments were performed at room temperature (∼21–23°C). An oocyte was placed in a recording chamber (0.3–0.5 ml volume) and perfused with ND96 solution (96 mM NaCl, 2 mM KCl, 1.8 mM CaCI2, 1 mM MgCl2, 5 mM HEPES, with pH adjusted to 7.5). Current and voltage electrodes were filled with 300 mM KCl and made from thin-walled borosilicate glass (GC150TF-7.5, Harvard Apparatus) using a PC-10 electrode puller (Narashige Instruments) and had resistances of 0.5–2 MΩ. Oocytes were voltage-clamped to a holding potential of −50 mV or −60 mV using a Turbo TEC-03 amplifier (npi electronics). […]
# [4] = test system: epileptiform activity (burst discharges) in hippocampal slices induced by pentylenetetrazol; test: In vitro seizure model, pentylenetetrazol-induced epileptiform activity in hippocampal slices; assay type: cell-based, rat; details: pentylenetetrazol 2 mM, K+ 6 mM
# Procedure: (§2) Male Sprague-Dawley rats (postnatal Days 19–30) were sacrificed using an overdose of isoflurane or pentobarbitone (500 mg/kg). After decapitation the brain was rapidly removed, the hippocampus or entorhinal cortex-hippocampus slices was dissected from the brain and […] thick transverse slices were prepared on a VT1200S vibratome (Leica) or Vibratome (Vibratome® 1500 sectioning system, Intracell). The slicing was performed in ice-cold sucrose-based solution containing (in mM): 75 sucrose, 87 NaCl, 22 glucose, 2.5 KCl, 7 MgCl2, 1.25 NaH2PO4, 0.5 CaCl2 and 25 NaHCO3, pH 7.4, 315–330 mOsm equilibrated with 95% O2 plus 5% CO2. The slices were then stored in a continuously oxygenated humidified interface holding chamber containing oxygenated artificial CSF (in mM): 120 NaCl, 22 glucose, 2.5 KCl, 1.3 MgSO4, 1 NaH2PO4, 25 NaHCO3 and 2.5 CaCl2, pH 7.4 296 mOsm, where they recovered for at least 1 h before use.
# (§3) During the experiment, slices were transferred from the interface chamber into a submerged recording chamber, designed to optimize wash-in and wash-out of drugs, and continuously perfused using gravity feed at 3–6 ml/min with prewarmed (36°C) oxygenated artificial CSF (95% O2, 5% CO2). Field potentials were recorded with a glass microelectrode (1–2 MΩ) filled with artificial CSF solution placed in stratum radiatum of CA1 and were filtered at 1 kHz and digitized at 2 kHz (using an npi EXT-02F extracellular amplifier recorded with WinEDR software). In the pentylenetetrazol model, the epileptiform (paroxysmal) activity was induced by application of pentylenetetrazol (2 mM) to the perfusate and [K^+] was increased (to 6 mM); in low-Mg^2+ model, the epileptiform activity was elicited by using Mg^2+-free artificial CSF. Once the frequency of the paroxysmal activity was stable for at least 10 min, compounds were applied to the perfusate for the following 40 min, and washed out for a remaining 20 min. The anticonvulsant effects were evaluated by measuring the change in the frequency of the discharges at minute intervals. The discharge frequency was then averaged every 5 min during the experiment and normalized to baseline. The compounds applied in this study included: 1% dimethyl sulphoxide (DMSO), acetone (10 mM, Sigma), (±)-sodium 3-hydroxybutyrate (BHB) (10 mM, Sigma), and decanoic acid (1 mM, Alfa Aesar Pty). Acetone and decanoic acids were prepared as 1000× stocks in DMSO, and BHB was prepared as 100× stock. Stocks were dissolved in artificial CSF to achieve their final concentrations during experiments, and where applicable, experiments included constant levels of DMSO.
# [5] = test system: epileptiform activity (burst discharges) in hippocampal slices induced by low-Mg2+; test: In vitro seizure model, low-Mg2+ induced epileptiform activity in hippocampal slices; assay type: cell-based, rat; details: 10 mM; low magnesium
# Procedure: as §2
# as §3, with “The discharge frequency was then averaged every 5 min during the experiment and normalized to baseline. The compounds applied in this study included: 1% dimethyl sulphoxide (DMSO), acetone (10 mM, Sigma), (±)-sodium 3-hydroxybutyrate (BHB) (10 mM, Sigma), and decanoic acid (1 mM, Alfa Aesar Pty). Acetone and decanoic acids were prepared as 1000× stocks in DMSO, and BHB was prepared as 100× stock. Stocks were dissolved in artificial CSF to achieve their final concentrations during experiments, and where applicable, experiments included constant levels of DMSO.” left out
# AMPA receptor = test system: AMPA receptor; set-up: method as in Arai, 2001; details: 50 µM; ref Arai, 2001; cited from earlier work
# T1 sequence (P42262 22-883 isoform P42262-2 limits assumed): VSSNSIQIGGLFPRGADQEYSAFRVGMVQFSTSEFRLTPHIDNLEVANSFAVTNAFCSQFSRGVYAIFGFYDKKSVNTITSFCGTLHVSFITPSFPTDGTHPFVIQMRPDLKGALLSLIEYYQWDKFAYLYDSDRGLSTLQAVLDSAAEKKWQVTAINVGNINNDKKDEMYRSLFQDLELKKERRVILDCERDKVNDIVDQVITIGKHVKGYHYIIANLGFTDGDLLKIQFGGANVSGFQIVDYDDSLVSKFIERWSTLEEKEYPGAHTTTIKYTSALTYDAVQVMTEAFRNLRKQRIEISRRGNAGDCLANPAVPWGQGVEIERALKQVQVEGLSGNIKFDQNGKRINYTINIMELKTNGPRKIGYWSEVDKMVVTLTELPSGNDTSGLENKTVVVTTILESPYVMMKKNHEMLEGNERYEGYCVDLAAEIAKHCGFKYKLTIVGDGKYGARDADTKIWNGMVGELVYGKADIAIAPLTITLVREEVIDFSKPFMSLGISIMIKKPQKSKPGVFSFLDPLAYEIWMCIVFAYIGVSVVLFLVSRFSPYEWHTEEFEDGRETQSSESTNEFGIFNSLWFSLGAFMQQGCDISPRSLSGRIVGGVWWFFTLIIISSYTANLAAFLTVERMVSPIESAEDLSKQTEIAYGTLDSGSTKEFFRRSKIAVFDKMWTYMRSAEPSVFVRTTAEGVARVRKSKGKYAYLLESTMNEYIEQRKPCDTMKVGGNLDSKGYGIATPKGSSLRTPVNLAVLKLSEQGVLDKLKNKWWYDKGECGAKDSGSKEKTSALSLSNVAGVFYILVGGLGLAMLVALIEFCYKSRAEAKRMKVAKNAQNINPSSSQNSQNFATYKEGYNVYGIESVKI
# T1 sequence (P42263 29-894 isoform P42263-2 limits assumed): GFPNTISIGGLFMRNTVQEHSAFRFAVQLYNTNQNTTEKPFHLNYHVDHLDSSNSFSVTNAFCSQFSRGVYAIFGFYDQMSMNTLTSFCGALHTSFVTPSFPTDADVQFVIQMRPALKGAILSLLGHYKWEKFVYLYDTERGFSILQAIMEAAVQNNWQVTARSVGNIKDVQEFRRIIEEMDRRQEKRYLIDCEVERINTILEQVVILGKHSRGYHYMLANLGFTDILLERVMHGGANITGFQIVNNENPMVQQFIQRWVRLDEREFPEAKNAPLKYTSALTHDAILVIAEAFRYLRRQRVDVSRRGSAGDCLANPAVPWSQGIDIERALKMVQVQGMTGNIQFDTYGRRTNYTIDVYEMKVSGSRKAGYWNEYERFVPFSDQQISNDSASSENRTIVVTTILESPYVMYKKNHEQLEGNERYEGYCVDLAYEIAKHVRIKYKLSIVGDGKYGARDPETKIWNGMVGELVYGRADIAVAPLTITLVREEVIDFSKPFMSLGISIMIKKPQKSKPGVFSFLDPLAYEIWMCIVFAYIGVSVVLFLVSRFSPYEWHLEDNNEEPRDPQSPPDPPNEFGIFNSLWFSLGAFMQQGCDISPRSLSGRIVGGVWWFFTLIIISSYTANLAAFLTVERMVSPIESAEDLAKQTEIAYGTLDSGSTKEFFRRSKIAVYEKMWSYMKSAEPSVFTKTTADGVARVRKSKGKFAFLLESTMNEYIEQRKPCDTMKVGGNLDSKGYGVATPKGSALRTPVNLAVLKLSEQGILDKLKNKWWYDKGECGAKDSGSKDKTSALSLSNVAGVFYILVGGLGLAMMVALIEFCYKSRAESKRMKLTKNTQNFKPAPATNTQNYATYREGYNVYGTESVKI
# T2 sequence (P42261 19-906 isoform P42261-2 limits assumed): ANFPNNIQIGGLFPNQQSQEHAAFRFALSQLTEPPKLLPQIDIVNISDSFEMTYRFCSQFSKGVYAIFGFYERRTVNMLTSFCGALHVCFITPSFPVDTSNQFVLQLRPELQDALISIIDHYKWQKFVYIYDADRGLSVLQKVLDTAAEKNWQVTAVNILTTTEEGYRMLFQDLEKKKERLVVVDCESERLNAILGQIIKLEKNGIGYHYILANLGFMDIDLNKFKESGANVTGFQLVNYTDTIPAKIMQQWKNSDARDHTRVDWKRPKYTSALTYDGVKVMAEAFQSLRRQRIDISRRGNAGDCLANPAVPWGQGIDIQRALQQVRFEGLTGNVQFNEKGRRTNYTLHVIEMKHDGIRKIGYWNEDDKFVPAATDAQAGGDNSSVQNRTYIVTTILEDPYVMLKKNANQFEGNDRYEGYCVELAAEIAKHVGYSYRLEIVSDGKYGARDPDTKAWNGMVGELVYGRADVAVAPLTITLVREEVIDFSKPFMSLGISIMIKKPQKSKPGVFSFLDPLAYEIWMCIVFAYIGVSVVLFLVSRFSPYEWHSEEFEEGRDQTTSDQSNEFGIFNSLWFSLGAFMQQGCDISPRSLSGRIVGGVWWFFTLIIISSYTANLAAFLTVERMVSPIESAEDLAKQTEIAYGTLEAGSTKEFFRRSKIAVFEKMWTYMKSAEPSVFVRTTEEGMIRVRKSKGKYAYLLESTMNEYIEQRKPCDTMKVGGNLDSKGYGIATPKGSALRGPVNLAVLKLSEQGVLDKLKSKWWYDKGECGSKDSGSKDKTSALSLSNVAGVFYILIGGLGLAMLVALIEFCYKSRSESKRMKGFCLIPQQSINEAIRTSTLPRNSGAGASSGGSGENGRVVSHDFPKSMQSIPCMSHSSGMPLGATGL
smiles,measurement,setting,value
N#Cc1ccccc1-c1cc(-c2ccccn2)cn(-c2ccccc2)c1=O [perampanel],free concentrations observed to be efficacious,[1],30 to 50 nM
same,reduction in field EPSP slope,field EPSP,~20%
CCCC(CCC)C(=O)O [valproic acid],effect on seizure activity,[2],only modifies seizure activity
same,effect on seizure activity,[3],only modifies seizure activity
same,AMPA receptor currents,AMPA receptor GluA2/3,no action
same,effect on homomeric GluA1 currents,AMPA receptor GluA1,no effect
"CC(O)CC(=O)O (racemic) [β-hydroxybutyrate, (±)-sodium 3-hydroxybutyrate]",effect on epileptiform activity,[4]; 10 mM,did not have any effect
same,effect on epileptiform activity,[5],did not have any effect
CC(C)=O [acetone],effect on epileptiform activity,[4]; 10 mM,did not have any effect
same,effect on epileptiform activity,[5],did not have any effect
CCCCC(C)CCC(=O)O (stereo not drawn) [4-methyloctanoic acid],IC50,"AMPA receptor GluA2/3; glutamate 100 µM, read-out: IC50, inhibition of glutamate-induced AMPA receptor current",840 ± 40 µM
"CCCCCCCC(=O)O [octanoic acid, reference compound]",AMPA receptor currents,AMPA receptor GluA2/3,no effect
same,effect on homomeric GluA1 currents,AMPA receptor GluA1,no effect
"CC1=NN=C(c2ccc(N)cc2)c2cc3c(cc2C1)OCO3 [GYKI 52466, reference compound]",effect on epileptiform activity,[4]; 50 µM,completely blocked
same,decrease in AMPA receptor responses,AMPA receptor,60–70%
